According to ChEMBL document CHEMBL5344462, “Novel-Type GABAB PAMs: Structure-Activity Relationship in Light of the Protein Structure” (ACS Med Chem Lett, 2024):

Assay: Positive allosteric modulator activity at rat cortical membrane GABA-B receptor incubated for 60 min by [35S]GTPgammaS binding assay
Format: cell membranes, Cortex

Compound | pEC50
Cc1ncc(-c2ccc(C(F)(F)F)cc2)c(N[C@@H]2C[C@H]3CC[C@@H]2C3)n1 | 6.13
COc1nn(-c2ccc(F)c(NC(C)=O)c2)c(=O)n(Cc2ccc(Cl)c(F)c2)c1=O | 6.89
CC(=O)Nc1cccc(-c2c(S(C)(=O)=O)c(C)nc3cc(-c4ccc(Cl)cc4)nn23)c1 | 6.42
Cc1nc2ccc(I)cc2c(N2CCCCC2)c1S(C)(=O)=O | 5.83
CC(=O)Nc1cccc(-c2c([S+](C)[O-])c(C)nc3cc(-c4ccc(Cl)cc4)nn23)c1 (stereo not given) | 6.19
CC(=O)Nc1cccc(-c2cc(C)nc3cc(-c4ccc(Cl)cc4)nn23)c1 | 6.6
CC(=O)Nc1ccccc1-c1cc(C)nc2cc(-c3ccc(Cl)cc3)nn12 | 6.17
CC(C)(C)c1cc(C(C)(C)C)c2c(c1)C(O)(C(F)(F)F)C(=O)O2 (racemic) | 6.78
Cc1nc(N2CCCCC2CCO)c2sc(-c3ccc(Cl)cc3)cc2n1 (racemic) | 6.59
Cc1cc(NC2CCCNC2=O)n2nc(-c3ccc(Cl)cc3)cc2n1 (racemic) | 5.4
Cc1nc(N2CCCCC2CCO)c2nc(-c3ccc(Cl)cc3)cn2n1 (racemic) | 6.24
CCOC(=O)C1=C(N2CCOCC2CCO)N2N=C(c3ccc(Cl)cc3)CC2N=C1C (racemic) | 6.09
Cc1cc(N2CCCCC2CCO)c2sc(-c3ccc(Cl)cc3)cc2n1 (racemic) | 6.22
Cc1cc(N2CCCCC2CCO)n2nc(-c3ccc(C#N)cc3)cc2n1 (racemic) | 5.29
Cc1cc(N2CCCCC2CCO)n2nc(-c3ccccc3)cc2n1 (racemic) | 5.91
Cc1cc(N2CCOCC2CCO)n2nc(-c3ccc(Cl)cc3)cc2n1 (racemic) | 5.61
Cc1cc(N2CCCCC2CCO)n2nc(-c3cccc(Cl)c3)cc2n1 (racemic) | 5.3
COc1ccc(-c2cc3nc(C)cc(N4CCCCC4CCO)n3n2)cc1 (racemic) | 5.25
Cc1cc(N2CCCCC2CCO)n2nc(-c3ccc(F)cc3)cc2n1 (racemic) | 5.93
Cc1cc(N2CCCCC2CCO)c2cc(-c3ccc(Cl)cc3)oc2n1 (racemic) | 5.92
Cc1cc(NC2CCCCNC2=O)n2nc(-c3ccc(Cl)cc3)cc2n1 (racemic) | 5.89
Cc1cc(N2CCCCC2CCO)n2nc(Cc3ccccc3)cc2n1 (racemic) | 5.24

Continued, values first:

pEC50 | Compound
7.75 | CSc1c(C)nc2cc(-c3ccc(Cl)cc3)nn2c1-c1cccc(NC(C)=O)c1
7.15 | CSc1c(C)nc2cc(-c3ccc(Cl)cc3)nn2c1N1CCC[C@@H](C(=O)O)C1
6.75 | CSc1c(C)nc2cc(-c3ccc(Cl)cc3)nn2c1N1CCC[C@H](C(=O)O)C1
5.85 | CCOC(=O)C1CCCN(c2cc(C)nc3cc(-c4ccc(Cl)cc4)nn23)C1 (racemic)
5.78 | Cc1nc2cc(-c3ccc(Cl)cc3)nn2c(N2CCOCC2CCO)c1C#N (racemic)
7.05 | COc1c(C)nc2cc(-c3ccc(Cl)cc3)nn2c1N1CCCCC1CCO (racemic)
5.69 | COc1c(C)nc2cc(-c3ccc(Cl)cc3)nn2c1N1CCCC(C(=O)O)C1 (racemic)
6.63 | Cc1nc(N2CCCCC2CCO)n2nc(-c3ccc(Cl)cc3)cc2n1 (racemic)
6.55 | Cc1cc(N2CCCCC2C(N)=O)n2nc(-c3ccc(Cl)cc3)cc2n1 (racemic)
5.97 | Cc1cc(N2CCCCC2C(=O)O)n2nc(-c3ccc(Cl)cc3)cc2n1 (racemic)
6.21 | Cc1cc(N2CCCCC2CCO)n2nc(-c3ccc(Cl)cc3)cc2n1 (racemic)
6.93 | CSc1c(C)nc2cc(-c3ccc(Cl)cc3)nn2c1N1CCCC(C(=O)O)C1 (racemic)
5.32 | Cc1cc(N2CCCC(C(=O)O)C2)n2nc(-c3ccc(Cl)cc3)cc2n1 (racemic)
